The assay is described as follows: anticoagulant activity. The following applies: definition of DF01.

For the substance tafoxiparin, the anticoagulant activity result is given as “essentially no anticoagulant activity”.

The values are drawn from patent US20250360160A1, “NEW MEDICAL USE OF TAFOXIPARIN” (DILAFOR AB, priority 2022, published 2025).
